Reference: patent US20250171400A1, “AZA-HETEROCYCLYL CARBOXAMIDE AND RELATED COMPOUNDS AND THEIR USE IN TREATING MEDICAL CONDITIONS” (X-BIOTIX THERAPEUTICS, INC., priority 2021, published 2025)
In brackets after ≈: the same amount, converted by molar mass. Read-outs that look alike come from different tables or passages of the source.

Tests used:
[1] = molecular target: P. aeruginosa LpxC (Pseudomonas aeruginosa (strain ATCC 15692 / DSM 22644 / CIP 104116 / JCM 14847 / LMG 12228 / 1C / PRS 101 / PAO1), UniProt P47205); test: biochemical; format: biochemical; settings: 5 nM P. aeruginosa LpxC, 2.5 μM substrate, 1 hour at room temperature
Method in brief: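 In vitro deacetylation of substrate by P. aeruginosa LpxC in 384-well format. Substrate and product were captured on Hypercarb and quantified by negative-mode electrospray triple-quadrupole MS. IC50 was derived from the fraction of substrate converted at each compound concentration, calculated from peak areas.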

[2] = tested on: wild-type P. aeruginosa PAO1; test: broth microdilution minimum inhibition concentration assay; format: cell-based; settings: Pseudomonas aeruginosa
Method in brief: (§1)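 CLSI broth microdilution with serial doubling dilutions in cation-adjusted Mueller-Hinton broth; inoculum adjusted to 1×10^6 CFU/mL, incubated 16-20 h at 37° C in air. Knockouts are isogenic clean deletions of acrA (E. coli BW25113) or MexA (PAO1); QC by piperacillin on ATCC reference strains.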

[3] = tested on: P. aeruginosa PAO1 isogenic mutant deficient in MexA mediated efflux; test: as above; format: cell-based; settings: Pseudomonas aeruginosa, PAO1, read-out: P. aeruginosa KO MIC
Method in brief: as §1

[4] = tested on: wild-type E. coli BW25113; test: as above; format: cell-based; settings: Escherichia coli; wild-type E. coli BW25113, 37° C. 16-20 h; read-out: E. coli WT MIC
Method in brief: as §1

[5] = tested on: E. coli BW25113 isogenic mutant deficient in acrA mediated efflux; test: as above; format: cell-based; settings: Escherichia coli, BW25113, read-out: E. coli KO MIC
Method in brief: as §1

[6] = molecular target: E. coli LpxC (Escherichia coli (strain K12), UniProt P0A725); test: in vitro substrate deacetylation assay for inhibition of LpxC (ADDA analysis); format: biochemical; settings: 5 nM E. coli LpxC, 2.5 μM substrate, 1 hour at room temperature
E. coli LpxC, sequence (P0A725 whole entry): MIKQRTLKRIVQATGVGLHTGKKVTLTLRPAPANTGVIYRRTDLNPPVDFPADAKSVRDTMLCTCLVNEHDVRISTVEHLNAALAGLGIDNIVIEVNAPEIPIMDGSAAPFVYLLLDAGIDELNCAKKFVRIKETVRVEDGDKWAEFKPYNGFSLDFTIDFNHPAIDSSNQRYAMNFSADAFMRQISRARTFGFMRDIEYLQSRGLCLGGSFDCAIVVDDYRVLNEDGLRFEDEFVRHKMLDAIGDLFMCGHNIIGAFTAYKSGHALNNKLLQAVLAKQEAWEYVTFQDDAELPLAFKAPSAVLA
Method in brief: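 E. coli LpxC (5 nM) was preincubated with compound for 10 min at room temperature in phosphate/sucrose/BSA buffer, pH 7.2. UDP-3-O-(R-3-hydroxymyristoyl)-GlcNAc (final 2.5 μM) was then added for 1 h. Substrate and product were measured by ADDA LC-MS/MS, with 1 μM CHIR-090 defining 100% inhibition and IC50 from a four-parameter fit.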

[7] = PAO1, read-out: P. aeruginosa WT MIC
[8] = wild-type P. aeruginosa PAO1, 37° C. 16-20 h, read-out: P. aeruginosa WT MIC

Row | Compound | IC50 [1] [nM] | MIC [2, 7] [µM] | MIC [3] [µM] | MIC [4] [µM] | MIC [5] [µM] | IC50 [6] [nM] | MIC [2, 8] [µM]
1 | C[C@@H](CN)C(=O)N1C[C@H](NC(=O)[C@@H]2C[C@H](F)CN2)C[C@@H]1C(=O)NCc1ccc(C#CC#CC2CC2)cc1 [Example 9S] | 50 to 100 | > 100 | > 100 | > 100 | > 100 | 500 to 2500 | 
2 | CNC(=O)N1C[C@H](NC(=O)[C@@H]2C[C@H](F)CN2)C[C@@H]1C(=O)NCc1ccc(C#Cc2ccc(CN3CCOCC3)cc2)cc1 [Example 9AR] | < 50 |  | < 20 | > 100 | 20 to 100 (≈ 11.8 to 59.1 µg/mL) | < 500 | > 100
3 | CC(C)C(=O)N1C[C@H](NC(=O)[C@@H]2CCCN2)C[C@@H]1C(=O)NCc1ccc(C#Cc2ccc(CN3CCOCC3)cc2)cc1 [Example 9K] | 50 to 100 | > 100 | 20 to 100 (≈ 11.7 to 58.6 µg/mL) | > 100 | 20 to 100 (≈ 11.7 to 58.6 µg/mL) | 500 to 2500 | 
4 | CN(C)C(=O)N1C[C@H](NC(=O)[C@@H]2C[C@H](F)CN2)C[C@@H]1C(=O)NCc1ccc(C#Cc2ccc(CN3CCOCC3)cc2)cc1 [Example 9AH] | < 50 |  | < 20 | > 100 | 20 to 100 (≈ 12.1 to 60.5 µg/mL) | 500 to 2500 | > 100
5 | COCCN(C(=O)[C@@H]1C[C@H](F)CN1)[C@@H]1C[C@H](C(=O)NCc2ccc(C#Cc3ccc(CN4CCOCC4)cc3)cc2)N(C(=O)C2CC2)C1 [Example 9AV, (2R,4R)-1-(Cyclopropanecarbonyl)-4-((2S,4S)-4-fluoro-N-(2-methoxyethyl)pyrrolidine-2-carboxamido)-N-(4-((4-(morpholinomethyl)phenyl)ethynyl)benzyl)pyrrolidine-2-carboxamide] | > 1000 |  | > 100 | > 100 | > 100 | > 10000 | > 100
